In article PMC10302127 (Medicina, 2023):
In brackets after ≈: the same amount, converted by molar mass.

Tests used:
[1] = test system: S. aureus; test: Antibacterial disc diffusion; type: cell-based; conditions: S. aureus (G + ve) in Table 2, disc diffusion
Experimental: (§1) The antibacterial activity of the synthesized compound was evaluated using the disc diffusion method in accordance with the clinical and laboratory standards institute’s recommendations. Molten Mueller–Hinton agar and Sabouraud dextrose agar media were inoculated with the inoculum at 35 ± 2 °C and then poured into a Petri dish (90 mm). Each sample was soaked on 6 mm absorbent discs in dimethyl sulfoxide (DMSO) and placed on the inoculation plates. After 2 h at 4 °C, the plates were incubated at 35 ± 2 °C for 18–20 h. The inhibition zone diameters were determined. Positive control discs of selected antibiotics were included in each assay; inhibition zones were compared to the reference discs. Negative controls were treated with DMSO, and the assays were performed in triplicate.

[2] = test system: B. subtilis; test: Antibacterial disc diffusion; type: cell-based, Bacillus subtilis; conditions: B. subtilis (G + ve)
Experimental: as §1

[3] = test system: S. typhi; test: Antibacterial disc diffusion; type: cell-based, Salmonella typhi; conditions: S. typhi (G − ve)
Experimental: as §1

[4] = test system: E. coli; test: Antibacterial disc diffusion; type: cell-based, Escherichia coli; conditions: E. coli (G − ve)
Experimental: as §1

[5] = test system: P. aeruginosa; test: Antibacterial disc diffusion; type: cell-based, Pseudomonas aeruginosa; conditions: P. aeruginosa (G − ve)
Experimental: as §1

[6] = test system: five bacterial pathogens; test: Antibacterial disc diffusion, statements on groups of bacteria; type: cell-based
Experimental: as §1

[7] = test system: brine shrimp nauplii; test: Brine shrimp lethality bioassay; conditions: 24 and 48 h
Experimental: Vials A, B, C, and D contained 4, 8, 16, and 32 μL of material. Each vial received 10 brine shrimp nauplii at […]. Ten nauplii in 5 mL saltwater were used for a control test. The vials were incubated at room temperature for 24–48 h. After incubation, the vials were magnified and counted to determine how many survived. Each concentration has an average nauplii mortality rate.

[8] = test system: Aspergillus flavus; test: Mycelial growth inhibition, poisoned food method; type: cell-based; conditions: 20 μg/μL in DMSO
Experimental: (§2) The potato dextrose agar (PDA)-based antifungal experiment was screened using the food poisoning approach. Sterilized 70 mm glass Petri dishes were filled with 20 mL melted PDA (45 °C). After the medium solidified, sterilized needles placed small amounts of mycelia from the two fungal pathogens in the center of each plate. […] After 48 h at 37 °C, mycelial growth was measured.

[9] = test system: Bacillus cereus; test: Antibacterial disc diffusion; type: cell-based; conditions: as named in text
Experimental: as §1

[10] = test system: S.typhi; test: MIC and MBC microdilution; conditions: Salmonella enterica
Experimental: (§3) Microdilution techniques were employed to calculate the minimum inhibitory concentration (MIC) and the minimum bactericidal concentration (MBC). […] After solidification, the medium incorporated was seeded from suspensions of bacteria at a concentration of 0.5 McFarland standard (1.0 × 10^8 CFU/mL). After 18–20 h of incubation at 35 ± 2 °C, the absence or presence of microbial growth in Petri dishes was determined by examination with the naked eye. […] All compounds were evaluated three times against each microorganism.

[11] = test system: B. cereus; test: MIC and MBC microdilution; conditions: Bacillus cereus
Experimental: as §3

[12] = test system: B. subtilis; test: MIC and MBC microdilution; conditions: Bacillus subtilis
Experimental: as §3

[13] = test system: E. coli; test: MIC and MBC microdilution; conditions: Escherichia coli
Experimental: as §3

[14] = test system: P. aeruginosa; test: MIC and MBC microdilution; conditions: Pseudomonas aeruginosa
Experimental: as §3

[15] = test system: Aspergillus niger; test: Mycelial growth inhibition, poisoned food method; type: cell-based; conditions: for Millimeters of Fungal Mycelial Growth Inhibition in DMSO (20 μg/μL): Aspergillus niger, 20 μg/μL in DMSO
Experimental: as §2

[16] = test system: EAC (Ehrlich ascites carcinoma) cells; test: MTT assay, antiproliferative activity; type: cell-based, Swiss albino mouse
Experimental: Ehrlich ascites carcinoma (EAC) cells were cultivated in conventional DMEM from a Swiss albino mouse bearing a tumor [45]. A 96-well flat-bottomed cell culture plate with 2 × 10^4 cells in 100 μL was incubated at 37 °C in a CO2 incubator for 24 h. Controls were three wells of untreated EAC cells in DMEM. […] After removing the aliquot, 10 mM PBS and 20 μL of MTT reagent (5 mg/mL MTT in PBS) were added. After another 8 h at 37 °C, the aliquot was drained, and acidic isopropanol (200 μL) was added. Absorbance values at 570 nm were recorded after another 30 min CO2 incubator incubation. The following formula was used to estimate cell proliferation incubation:Proliferation inhibition ratio (%) = (A − B) × 100/A where A and B represent the cellular homogenate OD570 nm from control wells and compound 6-treated wells, respectively.

Compound	Diameter of Inhibition Zones [1]	Diameter of Inhibition Zones [3]	activity against Gram-positive organisms [6]	inhibition among all bacterial types [6]	death (brine shrimp mortality) [7]	inhibition against the Gram-negative bacteria P. aeruginosa and S. typhi [6]	Millimeters of Fungal Mycelial Growth Inhibition in DMSO (20 μg/μL) [8]	inhibition of A. niger [15] [%]	Millimeters of Fungal Mycelial Growth Inhibition in DMSO (20 μg/μL) [15]	further results
CC[C@H]1OC(=O)[C@H](C)[C@@H](O[C@H]2C[C@@](C)(OC)[C@@H](O)[C@H](C)O2)[C@H](C)[C@@H](O[C@@H]2O[C@H](C)C[C@H](N(C)C)[C@H]2O)[C@](C)(O)C[C@@H](C)CN(C)[C@H](C)[C@@H](O)[C@]1(C)O [Azithromycin, reference compound]	** 17 ± 0.50 mm	** 18 ± 0.90 mm								Diameter of Inhibition Zones [2]: ** 18 ± 0.10 mm; Diameter of Inhibition Zones [4]: ** 17 ± 0.50 mm; Diameter of Inhibition Zones [5]: ** 15 ± 0.10 mm
O=c1ccn([C@@H]2O[C@H](CO)[C@@H](O)[C@H]2O)c(=O)[nH]1 [Compound 1, uridine, reference compound]			inactive	no inhibition						
CCCCCCCCCCCCCCCC(=O)OC[C@H]1O[C@@H](n2ccc(=O)[nH]c2=O)[C@H](O)[C@@H]1O [Compound 2, 5′-Oxo-palmitoyluridine]			inactive	no inhibition	31.21%					
CCCCCCCCCCCCCCCC(=O)OCC1OC(n2ccc(=O)[nH]c2=O)C(OC(=O)CCCCCCCCCCC)C1OC(=O)CCCCCCCCCCC (centres unmarked) [Compound 3, 2′,3′-Di-oxo-lauroyl-5′-oxo-palmitoyluridine]		* 11.0 ± 0.0 mm	inactive		48.24–49.28%	reasonable inhibition				
CCCCCCCCCCCCCCCC(=O)OCC1OC(n2ccc(=O)[nH]c2=O)C(OC(=O)CCCCCCCCCCCCC)C1OC(=O)CCCCCCCCCCCCC (centres unmarked) [Compound 4, 2′,3′-Di-oxo-myristoyl-5′-oxo-palmitoyluridine]	* 15 ± 0.50 mm				48.24–49.28%	reasonable inhibition	31 ± 0.15 Millimeters			inhibition zone [9]: 15 ± 0.50 mm; MBC [10]: 16 µg/mL (≈ 17.7 µM); MIC [10]: 0.5 µg/mL (≈ 0.554 µM); MIC [11]: 0.13 µg/mL (≈ 0.144 µM); MBC [12]: 8 µg/mL (≈ 8.86 µM); MIC [12]: 4 µg/mL (≈ 4.43 µM); MIC [13]: 0.5 µg/mL (≈ 0.554 µM); Diameter of Inhibition Zones [5]: 7 ± 0.25 mm; MBC [14]: 16 µg/mL (≈ 17.7 µM); MIC [14]: 0.5 µg/mL (≈ 0.554 µM)
CCCCCCCCCCCCCCCC(=O)OCC1OC(n2ccc(=O)[nH]c2=O)C(OC(c2ccccc2)(c2ccccc2)c2ccccc2)C1OC(c1ccccc1)(c1ccccc1)c1ccccc1 (centres unmarked) [Compound 5, 5′-oxo-Palmitoyl-2′,3′-di-oxo-trityluridine]	* 16 ± 0.20 mm	* 12 ± 0.25 mm			34.25%		* 66 ± 0.39 Millimeters	64 ± 0.44	* 64 ± 0.44 Millimeters	inhibition zone [9]: 16 ± 0.20 mm; MBC [10]: 8 µg/mL (≈ 8.27 µM); MIC [10]: 0.5 µg/mL (≈ 0.517 µM); MIC [11]: 1 µg/mL (≈ 1.03 µM); MBC ([11]; B. cereus): 16 µg/mL (≈ 16.5 µM); MBC [12]: 8 µg/mL (≈ 8.27 µM); MIC [12]: 0.5 µg/mL (≈ 0.517 µM); MIC [13]: 4 µg/mL (≈ 4.14 µM); MBC ([13]; E. coli): 8 µg/mL (≈ 8.27 µM)
CCCCCCCCCCCCCCCC(=O)OC[C@H]1O[C@@H](n2ccc(=O)[nH]c2=O)[C@H](OC(=O)C=Cc2ccccc2)[C@@H]1OC(=O)C=Cc1ccccc1 [Compound 6, 2′,3′-Di-oxo-cinnamoyl-5′-oxo-palmitoyluridine]			inactive	no inhibition			53 ± 0.33 Millimeters	72 ± 0.95	* 72 ± 0.95 Millimeters	cytotoxicity effects ([16]; 15.625 µg/mL): 3.11%; cytotoxicity effects ([16]; 31.25 µg/mL): 4.41%; cytotoxicity effects ([16]; 62.25 µg/mL (62.5 in Figure 5)): 5.41%; cytotoxicity effects ([16]; 125 µg/mL): 7.51%; cytotoxicity effects ([16]; 250 µg/mL): 14.02%; cytotoxicity effects ([16]; 500 µg/mL): 23.22%; IC50 ([16]; Mus musculus, Ehrlich, MTT): > 500 µg/mL
CCCCCCCCCCCCCCCC(=O)OC[C@H]1O[C@@H](n2ccc(=O)[nH]c2=O)[C@H](OC(=O)c2ccc(C(C)(C)C)cc2)[C@@H]1OC(=O)c1ccc(C(C)(C)C)cc1 [Compound 7, 2′,3′-Di-oxo-(4-t-butylbenzoyl)-5′-oxo-palmitoyluridine]		9 ± 0.00 mm	inactive		33.71%	reasonable inhibition	* 63 ± 0.10 Millimeters	66 ± 0.41	* 66 ± 0.41 Millimeters	
C[C@@H]1[C@H](O)[C@@H](C)/C=C/C=C/CC/C=C/C=C/C=C/C=C/C(O[C@H]2O[C@H](C)[C@@H](O)[C@H](N)[C@@H]2O)CC2O[C@](O)(CC(O)C(O)CCC(O)CC(O)CC(O)CC(=O)O[C@H]1C)CC(O)C2C(=O)O (some centres unmarked) [Nystatin, reference compound]							61 ± 0.00 Millimeters	59 ± 0.00	59 ± 0.00 Millimeters	
